Reference: patent publication US5504101A, “5-HT-1D receptor ligands” (priority 1994, dated 1996)

These compounds were tested against T1, 5-HT1Dβ receptor (Homo sapiens, UniProt P28222) (assay: biochemical). Conditions: ^3 H-5-HT radioligand; membranes from recombinant cells; 15 minute incubation at 37° C.; test compound 10^-11 M to 10^-5 M.
T1 construct: expressed in transfected cells
Type: binding
Experimental: The assay protocol generally entailed the incubation of membranes prepared from cells expressing the 1Dβ sub-type of 5-HT1D receptors, with ^3 H-5-HT. Increasing concentrations of the test compound were incubated with the radioligand and the membrane homogenates prepared from the recombinant cells. After a 15 minute incubation at 37° C., the incubation was terminated by vacuum filtration. The filters were washed with buffer and counted for radioactivity using liquid scintillation spectrometry. The affinity of the test compound for 5-HT1DIβ receptor was determined by computer-assisted analysis of the data and by determining the amount of the compound necessary to inhibit 50% of the binding of the radioligand to the receptor. Concentrations ranging from 10^-11 M to 10^-5 M of the test compounds were evaluated.

T1 sequence (P28222 whole entry): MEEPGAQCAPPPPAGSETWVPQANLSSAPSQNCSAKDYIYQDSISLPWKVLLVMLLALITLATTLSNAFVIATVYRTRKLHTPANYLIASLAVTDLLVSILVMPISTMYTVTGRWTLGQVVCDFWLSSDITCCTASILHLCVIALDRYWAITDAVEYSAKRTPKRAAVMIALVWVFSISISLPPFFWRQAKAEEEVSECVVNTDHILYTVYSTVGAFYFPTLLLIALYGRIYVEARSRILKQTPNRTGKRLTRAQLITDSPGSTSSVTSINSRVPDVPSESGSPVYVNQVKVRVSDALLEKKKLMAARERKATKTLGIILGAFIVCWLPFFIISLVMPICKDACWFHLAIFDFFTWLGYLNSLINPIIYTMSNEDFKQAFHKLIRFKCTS

COc1ccc(CCc2ccc3[nH]cc(CCN)c3c2)cc1 [4-MeO--Ph(CH2)2 --, 3-(2-aminoethyl)-5-(2-(4-methoxyphenyl)ethyl)indole] and NCCc1c[nH]c2ccc(CCc3ccccc3)cc12 [Ph(CH2)2 --, 3-(2-aminoethyl)-5-(2-phenylethyl)-indole] are within 1.5-fold of each other in Ki: 3.2 nM for the first, 2.9 nM for the second.

Going from NCCc1c[nH]c2ccc(OCCc3ccccc3)cc12 [Ph(CH2)2 O--, 3-(2-aminoethyl)-5-(2-phenylethyloxy)indole] to NCCc1c[nH]c2ccc(OCCCCc3ccccc3)cc12 [Ph(CH2)4 O--, 3-(2-aminoethyl)-5-(4-phenylbutyloxy)indole], the Ki falls from 1 nM to 0.19 nM (5.3-fold).

First: NCCc1c[nH]c2ccc(OCCCCCc3ccccc3)cc12 [Ph(CH2)5 O--, 3-(2-aminoethyl)-5-(5-phenylpentyloxy)indole]
Second: NCCc1c[nH]c2ccc(OCCCCCCc3ccccc3)cc12 [Ph(CH2)6 O--, 3-(2-aminoethyl)-5-(6-phenylhexyloxy)indole]
The Ki of the first is 3-fold lower: 0.64 nM for the first, 1.9 nM for the second. The first binds more tightly here.

NCCc1c[nH]c2ccc(OCCCCCCCCc3ccccc3)cc12 [Ph(CH2)8 O--, reference compound] and NCCc1c[nH]c2ccc(OCc3ccccc3)cc12 [PhCH2 O--, 3-(2-aminoethyl)-5-benzyloxyindole, reference compound] are within 1.5-fold of each other in Ki: 13.3 nM for the first, 10.5 nM for the second.

For NCCc1c[nH]c2ccc(Cc3ccccc3)cc12 [PhCH2 --, 3-(2-aminoethyl)-5-benzylindole], the Ki was 3.7 nM.
